Assay results as given in patent publication US11571418B2, “Platinum compounds that inhibit constitutive STAT3 signaling and induce cell cycle arrest and apoptosis of malignant cells” (H. LEE MOFFITT CANCER CENTER AND RESEARCH INSTITUTE, INC., priority 2011, dated 2023).

Columns and labels:
Stat3 [1] = target: T1, Stat3 (Mus musculus, UniProt P42227); test: In vitro Stat3 DNA-binding activity assay, EMSA with hSIE probe; conditions: pre-incubated 30 min before hSIE probe
T1 construct: Nuclear extract preparation from NIH3T3 stimulated by rhIL-6, NIH3T3/hEGFR stimulated by rhEGF; endogenous in cells; host or cells: NIH3T3/hEGFR fibroblasts stimulated with rhEGF (nuclear extract)
T1 sequence (P42227 2-770 limits assumed): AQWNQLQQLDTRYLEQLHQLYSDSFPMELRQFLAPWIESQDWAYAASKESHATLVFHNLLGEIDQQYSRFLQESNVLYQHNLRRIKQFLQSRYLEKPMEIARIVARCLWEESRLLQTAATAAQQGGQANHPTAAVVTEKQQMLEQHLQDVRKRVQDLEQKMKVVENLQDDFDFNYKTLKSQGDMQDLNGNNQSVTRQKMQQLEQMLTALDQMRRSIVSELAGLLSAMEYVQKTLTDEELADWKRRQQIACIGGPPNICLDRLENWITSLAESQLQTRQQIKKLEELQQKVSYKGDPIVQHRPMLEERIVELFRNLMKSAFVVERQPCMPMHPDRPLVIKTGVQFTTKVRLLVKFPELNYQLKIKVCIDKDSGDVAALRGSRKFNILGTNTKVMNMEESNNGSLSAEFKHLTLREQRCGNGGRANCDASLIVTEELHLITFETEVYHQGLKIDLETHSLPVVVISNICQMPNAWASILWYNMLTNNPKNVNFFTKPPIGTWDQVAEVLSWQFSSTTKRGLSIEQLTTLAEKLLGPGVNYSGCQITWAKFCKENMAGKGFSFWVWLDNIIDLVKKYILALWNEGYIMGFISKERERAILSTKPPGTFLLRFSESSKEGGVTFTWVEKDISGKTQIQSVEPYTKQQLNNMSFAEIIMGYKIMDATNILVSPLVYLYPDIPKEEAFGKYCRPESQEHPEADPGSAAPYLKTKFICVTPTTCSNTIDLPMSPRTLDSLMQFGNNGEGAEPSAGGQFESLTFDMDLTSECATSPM
Protocol: (§1) FIGS. 1A-1E. Inhibition of in vitro Stat3 DNA-binding activity by a platinum complex. Nuclear extracts or cell lysates containing activated Stat1, Stat3 and Stat5, or E2F1 prepared from NIH3T3/hEGFR that are stimulated with EGF or Sf-9 insect cells that are infected with baculovirus expressing Stat1, Stat3, Stat5, or E2F1, respectively, were treated with or without the indicated concentrations of platinum complex, PLATINUM-401 or Cisplatin, for 30 min at room temperature prior to incubation with radiolabeled oligonucleotide probes, and subjected to EMSA analysis. (FIG. 1A) (i) Stat1 and Stat3 binding activities to hSIE probe, (ii) Stat1 and Stat5 binding activities to MGFe probe, and (iii) plot of % oligonucleotide probe-STAT:STAT complexes versus concentration of PLATINUM-401. […] Positions of STAT: STAT-DNA complexes in gel are labeled. In (A) to (C), the control lanes represent DMSO (vehicle)-treatment.
(§2) Nuclear extract preparation and gel shift assays—Nuclear extract preparation from NIH3T3 stimulated by rhIL-6, NIH3T3/hEGFR stimulated by rhEGF, v-Src-transformed fibroblasts (NIH3T3/v-Src) or tumor cell lines and electrophoretic mobility shift assay were carried out as previously described (Turkson et al., 1998; Garcia et al., 1997; Yu et al., 1995). The ^32P-labeled oligonucleotide probes used are hSIE (high affinity sis-inducible element from the c-fos gene, m67 variant, 5′-[…]) (SEQ ID NO:1) that binds Stat1 and Stat3 (Garcia et al., 1997; Wagner et al., 1990) and MGFe (mammary gland factor element from the bovine β-casein gene promoter, 5′-AGATTTCTAGGAATTCAA) (SEQ ID NO:2) for Stat1 and Stat5 binding (49,50). Except where indicated, inhibitor compound was pre-incubated with the nuclear extract for 30 min at room temperature prior to incubation with radiolabeled probe.
Compounds from the NCI 2000 diversity set were screened for inhibition of Stat3 signaling in an in vitro DNA-binding activity assay based on analysis by electrophoretic mobility shift assay (EMSA). A platinum (IV) complex, PLATINUM-401 (NSC 295558) (FIG. 1E), was identified as a potent inhibitor of Stat3 and was further characterized for its anti-Stat3 properties. In the in vitro DNA-binding activity assay, nuclear extracts of equal total protein containing active Stat1, Stat3 and Stat5 were pre-incubated with different concentrations of PLATINUM-401 for 30 min prior to incubation with a [^32P]-labeled oligonucleotide, the m67 high affinity sis-inducible element (hSIE) probe that binds Stat1 and Stat3, or the mammary gland factor element (MGFe) that binds Stat1 and Stat5. Samples were then subjected to EMSA.

Stat1 = target: T2, Stat1 (Mus musculus, UniProt P42225); test: In vitro Stat1 DNA-binding activity assay, EMSA with hSIE or MGFe probe; conditions: pre-incubated 30 min before probe
T2 construct: Nuclear extract preparation from NIH3T3 stimulated by rhIL-6, NIH3T3/hEGFR stimulated by rhEGF; endogenous in cells; host or cells: NIH3T3/hEGFR fibroblasts stimulated with rhEGF (nuclear extract)
T2 sequence (P42225 2-749 limits assumed): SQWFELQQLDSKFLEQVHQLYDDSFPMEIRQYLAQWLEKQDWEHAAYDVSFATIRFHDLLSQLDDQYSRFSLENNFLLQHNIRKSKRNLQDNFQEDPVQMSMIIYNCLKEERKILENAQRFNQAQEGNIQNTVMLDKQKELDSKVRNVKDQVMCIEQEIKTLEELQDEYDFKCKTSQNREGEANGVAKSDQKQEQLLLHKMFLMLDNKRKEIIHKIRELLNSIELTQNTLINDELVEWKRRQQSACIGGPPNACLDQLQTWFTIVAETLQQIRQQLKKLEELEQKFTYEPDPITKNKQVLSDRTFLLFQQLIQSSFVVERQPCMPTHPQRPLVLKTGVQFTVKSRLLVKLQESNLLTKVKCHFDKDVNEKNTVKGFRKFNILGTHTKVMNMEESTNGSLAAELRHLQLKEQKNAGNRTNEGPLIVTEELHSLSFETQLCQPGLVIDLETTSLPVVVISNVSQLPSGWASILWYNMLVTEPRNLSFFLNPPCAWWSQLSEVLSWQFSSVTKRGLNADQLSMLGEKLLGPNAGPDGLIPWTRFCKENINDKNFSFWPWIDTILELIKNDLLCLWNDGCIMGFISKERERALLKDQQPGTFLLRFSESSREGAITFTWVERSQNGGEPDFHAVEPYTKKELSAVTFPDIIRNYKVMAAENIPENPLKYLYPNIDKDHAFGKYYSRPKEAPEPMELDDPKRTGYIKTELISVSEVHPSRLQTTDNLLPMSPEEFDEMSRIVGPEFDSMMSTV
Protocol: as §1, §2
Compounds from the NCI 2000 diversity set were screened for inhibition of Stat3 signaling in an in vitro DNA-binding activity assay based on analysis by electrophoretic mobility shift assay (EMSA). […]

Stat5 = test: In vitro Stat5 DNA-binding activity assay, EMSA with MGFe probe; design: species or system mouse; conditions: pre-incubated 30 min before MGFe probe
Protocol: as §1
Nuclear extract preparation and gel shift assays—Nuclear extract preparation from NIH3T3 stimulated by rhIL-6, NIH3T3/hEGFR stimulated by rhEGF, v-Src-transformed fibroblasts (NIH3T3/v-Src) or tumor cell lines and electrophoretic mobility shift assay were carried out as previously described (Turkson et al., 1998; Garcia et al., 1997; Yu et al., 1995). […]

E2F1 = target: T3, E2F1 (Homo sapiens, UniProt Q01094); test: In vitro E2F1 DNA-binding activity assay, EMSA with DHFR promoter probe; conditions: cell lysates pre-incubated with compound before DHFR promoter probe
T3 construct: made in house; host or cells: Sf-9 insect cells infected with baculovirus
T3 sequence (Q01094 whole entry, species assumed): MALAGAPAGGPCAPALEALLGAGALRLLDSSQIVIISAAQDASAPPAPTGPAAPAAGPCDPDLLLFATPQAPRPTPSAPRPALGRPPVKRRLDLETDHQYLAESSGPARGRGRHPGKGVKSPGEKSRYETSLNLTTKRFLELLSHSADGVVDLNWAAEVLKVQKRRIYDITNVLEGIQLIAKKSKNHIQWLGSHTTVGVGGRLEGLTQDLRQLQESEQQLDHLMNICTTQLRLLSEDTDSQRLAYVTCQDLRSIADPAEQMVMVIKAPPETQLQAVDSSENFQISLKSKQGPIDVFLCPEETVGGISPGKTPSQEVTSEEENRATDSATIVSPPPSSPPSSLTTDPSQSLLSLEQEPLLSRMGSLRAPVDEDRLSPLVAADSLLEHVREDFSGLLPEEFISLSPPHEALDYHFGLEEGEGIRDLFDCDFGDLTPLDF
Protocol: as §1
In control studies, the effect of PLATINUM-401 was evaluated on the DNA-binding activity of the E2F1 protein that is unrelated to STATs.

Stat3 [2] = target: T1, Stat3; conditions: Turkson et al., 2004b; cited from earlier work

In the case of `N.N.[Cl][Pt][Cl]` [Cisplatin, reference compound], the “effect on DNA-binding activity of Stat3:Stat3 homodimer” value (Stat3 [1]) is reported as “no detectable effect”, the “effect on DNA-binding activity of Stat1:Stat1 homodimer” value (Stat1) is reported as “no detectable effect” and the “effect on DNA-binding activity of Stat5:Stat5 dimer” value (Stat5) is reported as “no detectable effect”. The “effect on E2F1 DNA-binding activity” value (E2F1) was “no detectable effect” and the “effect on Stat3 activity” value (Stat3 [2]) was “no effect”.
